Structures can show the parent of a compound that is named as a salt.
Assays:
[1] = biological target: T1, viral reverse transcriptase (Human immunodeficiency virus type 1 group M subtype B, UniProt P04585); test: Viral reverse transcriptase inhibition, cell free assay; type: biochemical, human immunodeficiency virus (HIV-1); settings: read-out: RT % INHIBITION (100 μM), 100 μM; poly rC or poly rG template
T1 construct: Viral reverse transcriptase is found in extracts from bacterial clones; made in house; host or cells: Escherichia coli (extracts of bacterial clones, by the procedure of Larder et al., EMBO J. 6:3133-3137, 1987)
Procedure, shortened: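 E. coli-expressed HIV-1 RT extract was incubated with inhibitor, 10 μM [35S]-dNTP, poly rC/rG template and oligo dG/dT primer in Tris pH 8.3 with Mg2+ at 37 °C (30 min; 15 min in an alternative version). DNA incorporation was counted on filters and reported as % inhibition (at 100 μM in one version) and IC50.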

[2] = system: HIV-1 (MT-2 cells infected with HIV-1); test: Inhibition of HIV-induced syncytia formation in MT-2 cells; type: cell-based; settings: for IC50: Human immunodeficiency virus 1, MT2, MT-2 cells infected with HIV-1, read-out: INHIBITION OF SYNCYTIA FORMATION ED50
Description: This test is described in Quantitative Infectivity Assay for HIV-1 and -2., Nature 332: 469-470, 1988 as well as in AIDS RESEARCH AND HUMAN RETROVIRUSES, Vol. 4, No. 6, pages 449-455 (1988), Mary Ann Liebent, Inc., Publishers; in an article entitled "Nucleotide Dimers Suppress HIV Expression In VITRO". The results (IC50 means the concentration, in μM of drug, required to inhibit syncytia formation to the extent of 50%) of various assay(s) are combined and reported as % inhibition and IC50 (calculated).
ability of various compounds used to inhibit HIVinduced syncytia formatio
in a tissue culture assay using MT2 cells infected with HIV1. This test i
described by Nara et al., Quantitative infectivity assay for HIV1 and 2,
Nature 332, 469-470 (1988), as well as in AIDS RESEARCH AND HUMAN
RETROVIRUSES, vol. 4, No. 6, pages 449-455 (1988), Mary Ann Liebent, Inc.
Publishers, and in an article by Mariano Busso, et al., entitled
"Nucleotide Dimers Suppress HIV Expression In Vitro". The results
(ED50 means the concentration, in μM of drug, required to inhibit
syncytia formation to the extent of 50%) of various assay are combined an
reported in Table I. In comparison, the known commercial compound, AZT,
percent reductions in syncytia formation at concentrations of
approximately 1 μM and 0.5 μM, respectively.

[3] = system: HIV in primary human peripheral blood lymphocytes; test: Primary PBL assay: inhibition of viral replication (p24 & RNA); type: cell-based; settings: Human immunodeficiency virus 1, Lymphocyte, primary human lymphocytes infected with HIV, days three and four, read-out: PBL INHIBITION OF VIRAL REPLICATION (p24 & RNA) ED50
Procedure, shortened: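 Mitogen-stimulated human PBLs infected with standardized HIV, cultured with drug 4 days at one tenth of the antiproliferative half-maximal concentration. Secreted p24 by capture-ELISA and total HIV RNA by hybridization on days 3 and 4, with viability in parallel; ED50 is the concentration giving 50% reduction in p24.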

SMILES	inhibition at 100 µM [1]	IC50 [2]	EC50 [3]	EC50 ([2]; Human immunodeficiency virus 1, MT2, read-out: concentration giving 50 percent reduction in syncytia formation)	IC100 ([2]; Human immunodeficiency virus 1, MT2, read-out: concentration giving 100 percent reduction in syncytia formation)
CCNc1cccnc1N1CCN(C(=O)c2cc3ccccc3o2)CC1 [Example 27, 1[Benzofuroyl-2-carbonyl]-4-[3-(ethylamino) -2-pyridinyl]piperazine]	37 to 57%	> 0.001 µM	10 µM		
CC(C)Nc1cccnc1N1CCN(C(=O)c2cc3cc(N=CN(C)C)ccc3[nH]2)CC1 [Example 85, 1-[(5N-(N',N'-Dimethylaminomethylene)aminoindolyl)carbonyl]-4-(3(1-methylethylamino)-2-pyridinyl)piperazine, methane sulfonate]	93 to 96%	< 0.2 µM	0.001 to 0.01 µM		
CCNc1cccnc1N1CCN(C(=O)c2cc3cc(F)ccc3[nH]2)CC1 [Example 23, 1-[5-Fluoroindolyl-2-carbonyl]4-[3-(ethylamino)-2-pyridinyl]-piperazine]	92 to 95%	< 0.3 µM	0.003 to 0.01 µM		
CC(C)Nc1cccnc1N1CCCN(C(=O)c2cc3ccccc3[nH]2)CC1 [Example 83, 1-(Indolyl-2-carbonyl)-4-[3-(1-methylethylamino)-2-pyridinyl]-1,4-diazepine]	97 to 98%	< 0.3 µM	< 0.001 µM		
CCNc1cccnc1N1CCCN(C(=O)c2cc3ccccc3[nH]2)CC1 [Example 81, 1-[Indolyl-2-carbonyl]-4-(3-ethylamino-2-pyridinyl)-1,4-diazepine]	90 to 98%	0.9 µM	< 0.001 µM		
Cc1cn([C@H]2C[C@H](N=[N+]=[N-])[C@@H](CO)O2)c(=O)[nH]c1=O [AZT, 3'-azido-3'-deoxy-thymidine, reference compound]				~0.5 µM	~1 µM
CC(C)Nc1cccnc1N1CCN(C(=O)c2cc3cc(NC(=O)CN)ccc3[nH]2)CC1 [Example 86, 1-[5-(2'-Aminoacetamido)indolyl-2-carbonyl]-4-(3-(1-methylethylamino)-2-pyridinyl)piperazine hydrochloride]	78 to 96%	< 0.2 µM	0.001 to 0.01 µM		
O=C(c1cc2ccccc2[nH]1)N1CCN(c2ncccc2NCC2CC2)CC1 [Example 31, 1-[Indolyl-2-carbonyl]-4-[3-(cyclopropylmethylamino)-2-pyridinyl]piperazine]	65 to 71%	3 µM	0.1 to 1 µM		
CC(C)Nc1cccnc1N1CCN(C(=O)c2cc3ccccc3[nH]2)CC1 [Example 17, 1-[Indolyl-2-carbonyl]-4-[3-(1-methylethylamino)-2-pyridinyl]piperazine]	96%	≤ 0.3 µM	≤ 0.01 µM		
COc1ccc2[nH]c(C(=O)N3CCN(c4ncccc4NC(C)(C)C)CC3)cc2c1 [Example 45, 1-[5-Methoxyindolyl-2-carbonyl]-4-[3-(1,1-dimethylethylamino)-2-pyridinyl]piperazine hydrochloride salt]	83 to 91%	0.5 µM	0.01 to 0.1 µM		
CCCNc1cccnc1N1CCN(C(=O)c2cc3cc(F)ccc3[nH]2)CC1 [Example 21, 1-[5-Fluoroindolyl-2-carbonyl]-4-[3-(propylamino)-2-pyridinyl]piperazine]	44 to 74%	1 µM	0.01 to 1 µM		
CCNc1cccnc1N1CCN(C(=O)c2cc3cc(OC)c(OC)cc3[nH]2)CC1 [Example 133]	76 to 84%	1 µM	0.01 µM		
CCNc1cccnc1N1CCN(C(=O)c2cc3cc(Cl)ccc3[nH]2)CC1 [Example 22, 1-[5-Chloroindolyl-2-carbonyl]-4-[3-(ethylamino)-2-pyridinyl]piprazine]	76 to 82%	0.3 to 5 µM	0.01 µM		
CCNc1cccnc1N1CCN(C(=O)c2cc3cc(CC)ccc3[nH]2)CC1 [Example 24, 1-[5-Ethylindolyl-2-carbonyl]-4-[3-(ethylamino)-2-pyridinyl]piperazine]	65 to 70%	16 µM	0.01 to 0.1 µM		
CCNc1cccnc1N1CCN(C(=O)c2cc(C)c(OC)c(C)c2)CC1 [Example 1, 1-[4-Methoxy-3,5-dimethylbenzoyl]-4-[3-(ethylamino)-2-pyridinyl]piperazine]	60 to 79%	10 µM	1 µM		
CCNc1cccnc1N1CCN(C(=O)c2cc3ccccc3[nH]2)CC1 [Example 11, 1-[Indolyl-2-carbonyl]-4-[3-(ethylamino)-2-pyridinyl]piperazine]	95 to 98%	0.3 to 3 µM	0.01 to 0.1 µM		
CCNc1cccnc1N1CCN(C(=O)c2cc3cc(OC)ccc3[nH]2)CC1 [Example 16A, 1-[5-Methoxyindolyl-2-carbonyl]-4-[3-(ethylamino)-2-pyridinyl]-piperazine, hydrochloride]		< 0.2 µM	0.001 µM		
CCOc1ccccc1N1CCN(C(=O)c2cc3cc(OC)ccc3[nH]2)CC1 [Example 12, 1-[5-Methoxyindolyl-2-carbonyl]-4-[2-ethoxyphenyl]piperazine]	64 to 80%	< 0.3 µM	5 to 10 µM		
CCNc1cccnc1N1CCN(C(=O)c2cc3c(C)c(OC)c(C)c(C)c3[nH]2)CC1 [Example 42, 1-[5-Methoxy-4,6,7-trimethylindolyl-2-carbonyl]-4-[3-(ethylamino)-2-pyridinyl]piperazine]	63%	2 µM	10 µM		
COc1ccc2[nH]c(C(=O)N3CCN(c4ncccc4NC(C)C)CC3)cc2c1 [Example 26, 1-[5-Methoxyindolyl-2-carbonyl]-4-[3-(1-methylethylamino)-2-pyridinyl]piperazine]	97%	0.3 to 0.5 µM	0.003 µM		
CCN(CC)c1cccnc1N1CCN(C(=O)c2cc3ccccc3[nH]2)CC1 [Example 19, 1-[Indolyl-2-carbonyl]-4-[3-(N,N-diethylamino)-2-pyridinyl]-piperazine]	65 to 71%	3 µM	0.1 to 1 µM		
CCNc1cccnc1N1CCN(Cc2cc(C)c(OC)c(C)c2)CC1 [Example 3, 1-[4-Methoxy-3,5-dimethylbenzyl]-4-[3-(ethylamino)-2-pyridinyl]piperazine]	70 to 76%	1 to 2.5 µM	1 µM		
CCNc1cccnc1N1CCN(C(=O)c2cc3cc(O)ccc3[nH]2)CC1 [Example 37, 1-[5-Hydroxyindolyl-2-carbonyl]-4-[3-(ethylamino)-2-pyridinyl]piperazine]	82 to 95%	0.3 µM	0.1 µM		
CCNc1cccnc1N1CCN(Cc2cc3ccccc3[nH]2)CC1 [Example 20, 1-[Indolyl-2-methyl]-4-[3-(ethylamino)-2-pyridinyl]piperazine]	64%	10 µM	1 µM		
CCNc1cccnc1N1CCCN(C(=O)c2cc3cc(F)ccc3[nH]2)CC1 [Example 82, 1-(5-Fluoroindolyl-2-carbonyl)-4-(3-ethylamino-2-pyridinyl)-1,4-diazepine]	87 to 93%	10 µM	0.01 to 0.1 µM		
CC(C)Nc1cccnc1N1CCN(Cc2cc3cc(F)ccc3[nH]2)CC1 [Example 32, 1-[5-Fluoroindolyl-2-methyl]-4-[3-(1-methylethylamino)-2-pyridinyl]piperazine]	96%	< 0.3 µM	0.003 to 0.01 µM		
CC(C)(C)Nc1cccnc1N1CCN(C(=O)c2cc3cc(F)ccc3[nH]2)CC1 [Example 46, 1-[5-Fluoroindolyl-2-carbonyl]-4-[3-(1,1-dimethylethylamino)-2-pyridinyl]piperazine hydrochloride salt]	89%	1 µM	0.001 to 0.01 µM		
CCCNc1cccnc1N1CCN(Cc2cc(C)c(OC)c(C)c2)CC1 [Example 5, 1-[4-Methoxy-3,5-dimethylbenzyl]-4-[3-(propylamino)-2-pyridinyl]-piperazine]	39 to 42%	2 µM			
